# Experiments:
# Experiment in all cases: ≥ marks a high value that may be exact or a test limit, other limits are often not marked, values filed in µg/mL are converted to µM
# Botrytis cinerea 101 = system: Botrytis cinerea 101
# [1] = system: Candida albicans ATCC 10231
# [2] = system: Corynebacterium glutamicum ATCC 13032
# [3] = system: Escherichia coli ATCC 25922
# Penicillium roqueforti = system: Penicillium roqueforti
# Saccharomyces cerevisiae = system: Saccharomyces cerevisiae
# [4] = system: Staphylococcus aureus ATCC 9144
# [5] = system: Vibrio anguillarum FT1801
# [6] = system: Enterococcus faecalis ATCC 29212
# Enterococcus faecium = system: Enterococcus faecium
# [7] = system: Staphylococcus aureus ATCC 25923
# [8] = system: Staphylococcus aureus K35
# [9] = system: Staphylococcus aureus K52
# [10] = system: Acinetobacter baumannii Ab1408
# [11] = system: Acinetobacter baumannii Ab5753
# [12] = system: Acinetobacter baumannii Ab5755
# [13] = system: Acinetobacter baumannii NM109
# [14] = system: Acinetobacter baumannii NM124
# [15] = system: Acinetobacter baumannii NM35
# [16] = system: Acinetobacter baumannii NM75
# [17] = system: Acinetobacter baumannii NM8
# Acinetobacter baumannii = system: Acinetobacter baumannii
# [18] = system: Candida albicans ATCC 90028
# [19] = system: Escherichia coli ATCC 25726
# Escherichia coli Ec513 = system: Escherichia coli Ec513
# [20] = system: Pseudomonas aeruginosa Pa1409
# [21] = system: Pseudomonas aeruginosa Pa4216
# [22] = system: Staphylococcus aureus Sa1390
# Candida krusei ATCC 6258 = system: Candida krusei ATCC 6258
# [23] = system: Candida parapsilosis ATCC 22019
# [24] = system: Cryptococcus neoformans ATCC 90012
# [25] = system: Pseudomonas aeruginosa ATCC 27853
# [26] = system: Erwinia amylovora PMV 6076
# [27] = system: Pseudomonas syringae pv. syringae EPS 94
# [28] = system: Xanthomonas campestris pv. Vesicatoria 2133-2
# [29] = system: Bacillus subtilis KCTC 1918
# [30] = system: Candida albicans KCTC 7270
# [31] = system: Escherichia coli KCTC 1682
# [32] = system: Pseudomonas aeruginosa KCTC 1637
# [33] = system: Saccharomyces cerevisiae KCTC 7296
# [34] = system: Salmonella typhimurium KCTC 1926
# [35] = system: Staphylococcus aureus KCTC 1621
# [36] = system: Staphylococcus epidermidis KCTC 1917
# [37] = system: Trichosporon beigelii KCTC 7707
smiles,measurement,setting,value
CC(C)C[C@H](NC(=O)[C@H](C)NC(=O)[C@H](Cc1cnc[nH]1)NC(=O)[C@H](C)NC(=O)[C@H](C)NC(=O)[C@H](C)NC(=O)[C@H](CS)NC(=O)[C@H](C)NC(=O)CNC(=O)[C@H](CCCN=C(N)N)NC(=O)[C@H](CC(C)C)NC(=O)[C@@H](N)CC(=O)O)C(=O)O [DLRGACAAAHAL],MIC,Botrytis cinerea 101,≥ 100 µM
same,MIC,[1],> 100 µM
same,MIC,[2],≥ 100 µM
same,MIC,[3],> 100 µM
same,MIC,Penicillium roqueforti,≥ 100 µM
same,MIC,Saccharomyces cerevisiae,≥ 100 µM
same,MIC,[4],≥ 100 µM
same,MIC,[5],≥ 100 µM
CC(C)C[C@H](NC(=O)[C@H](C)NC(=O)CNC(=O)[C@H](CO)NC(=O)[C@H](CC(C)C)NC(=O)[C@@H](NC(=O)[C@H](CCCN=C(N)N)NC(=O)CNC(=O)[C@H](C)NC(=O)[C@H](CC(C)C)NC(=O)[C@@H]1CCCN1C(=O)[C@H](CC(C)C)NC(=O)[C@@H](N)Cc1ccccc1)C(C)C)C(N)=O [FLPLAGRVLSGAL],MIC,[6],> 168 µM
same,MIC,Enterococcus faecium,≥ 99.8 µM
same,MIC,[7],> 168 µM
same,MIC,[8],≥ 99.8 µM
same,MIC,[9],≥ 99.8 µM
CC[C@H](C)[C@H](NC(=O)CN)C(=O)N[C@@H](Cc1c[nH]c2ccccc12)C(=O)N[C@@H](CCCCN)C(=O)N[C@H](C(=O)N[C@H](C(=O)N[C@@H](CCCCN)C(=O)N[C@@H](CO)C(=O)N[C@@H](CCSC)C(=O)NCC(=O)N[C@@H](CCCCN)C(=O)N[C@H](C(=O)N[C@@H](Cc1ccccc1)C(=O)N[C@@H](C)C(=O)NCC(=O)N[C@@H](CCCCN)C(=O)N[C@H](C(=O)N[C@@H](CC(C)C)C(=O)N[C@@H](CCC(N)=O)C(=O)N[C@@H](CC(N)=O)C(=O)N[C@@H](CC(C)C)C(N)=O)[C@@H](C)CC)C(C)C)[C@@H](C)CC)[C@@H](C)O [GIWKTIKSMGKVFAGKILQNL],MIC,[10],6.86 µM
same,MIC,[11],3.43 µM
same,MIC,[12],1.71 µM
same,MIC,[13],1.5 µM
same,MIC,[14],1.5 µM
same,MIC,[15],3 µM
same,MIC,[16],3 µM
same,MIC,[17],3 µM
same,MIC,Acinetobacter baumannii,6.25 µM
same,MIC,[18],6 µM
same,MIC,[19],6.25 µM
same,MIC,Escherichia coli Ec513,3.43 µM
same,MIC,[20],13.7 µM
same,MIC,[21],13.7 µM
same,MIC,[7],12.5 µM
same,MIC,[22],6.86 µM
CC[C@H](C)[C@H](NC(=O)[C@H](Cc1ccccc1)NC(=O)[C@H](CC(N)=O)NC(=O)[C@H](CCCCN)NC(=O)[C@H](C)NC(=O)[C@@H](NC(=O)[C@H](CC(N)=O)NC(=O)[C@H](Cc1ccccc1)NC(=O)[C@H](C)NC(=O)[C@H](C)NC(=O)[C@H](CCCCN)NC(=O)CNC(=O)[C@H](CCCCN)NC(=O)[C@H](CCCCN)NC(=O)[C@H](CCCCN)NC(=O)[C@H](C)NC(=O)[C@@H](NC(=O)[C@H](CC(=O)O)NC(=O)[C@H](CC(C)C)NC(=O)[C@H](Cc1c[nH]c2ccccc12)NC(=O)CN)C(C)C)C(C)C)C(N)=O [GWLDVAKKKGKAAFNVAKNFI],MIC,[18],16 µM
same,MIC,Candida krusei ATCC 6258,31 µM
same,MIC,[23],31 µM
same,MIC,[24],31 µM
same,MIC,[3],8 µM
same,MIC,[25],32 µM
CC[C@H](C)[C@H](NC(=O)[C@H](CCCCN)NC(=O)[C@H](CCCCN)NC(=O)[C@H](Cc1ccccc1)NC(=O)[C@H](CC(C)C)NC(=O)[C@H](CCCCN)NC(=O)[C@@H](N)CCCCN)C(=O)N[C@@H](CC(C)C)C(=O)N[C@@H](CCCCN)C(=O)N[C@@H](Cc1ccc(O)cc1)C(=O)N[C@@H](CC(C)C)C(=O)N[C@@H](CCCCN)C(=O)N[C@@H](CC(=O)O)C(=O)N[C@@H](CCC(=O)O)C(=O)N[C@@H](CC(C)C)C(=O)O [KKLFKKILKYLKDEL],MIC,[26],3.54 µM
same,MIC,[27],3.54 µM
same,MIC,[28],1.77 µM
CC[C@H](C)[C@H](NC(=O)[C@H](CCCCN)NC(=O)[C@H](CO)NC(=O)[C@H](Cc1ccccc1)NC(=O)[C@H](CC(C)C)NC(=O)[C@H](CCCCN)NC(=O)[C@H](CCC(=O)O)NC(=O)[C@H](CC(C)C)NC(=O)[C@H](CCCN=C(N)N)NC(=O)[C@H](CCCCN)NC(=O)[C@H](Cc1ccccc1)NC(=O)[C@H](Cc1c[nH]c2ccccc12)NC(=O)[C@@H](N)CCCCN)C(N)=O [KWFKRLEKLFSKI],MIC,[29],1.56 µM
same,MIC,[30],17.7 µM
same,MIC,[31],3.12 µM
same,MIC,[32],1.56 µM
same,MIC,[33],6.25 µM
same,MIC,[34],0.78 µM
same,MIC,[35],1.56 µM
same,MIC,[36],3.12 µM
same,MIC,[37],1.56 µM

# Reference: DBAASP
